From ChEMBL document CHEMBL1201862, “PubChem BioAssay data set” (2004)
The source made the active and inactive calls. Cut-off read from the data, not from the text of the source, for most assays here: actives have a measured EC50 and inactives only a lower limit.

Experiments:
[1] = Luminescence Cell-Based Dose Response HTS to Identify Inhibitors of 5'UTR Stem-Loop Driven Prion Protein mRNA Translation in H4 Neuroglioblastoma Cells. [Related pubchem assays: 1827 (Project Summary), 1813 (Primary HTS)]; type: functional
[2] = molecular target: T1, Hexokinase HKDC1 (Homo sapiens, UniProt Q2TB90); experiment: HKDC1 hexokinase inhibitors, dose response, biochemical, W721R variant (AID 504729); type: functional
T1 sequence (Q2TB90 whole entry): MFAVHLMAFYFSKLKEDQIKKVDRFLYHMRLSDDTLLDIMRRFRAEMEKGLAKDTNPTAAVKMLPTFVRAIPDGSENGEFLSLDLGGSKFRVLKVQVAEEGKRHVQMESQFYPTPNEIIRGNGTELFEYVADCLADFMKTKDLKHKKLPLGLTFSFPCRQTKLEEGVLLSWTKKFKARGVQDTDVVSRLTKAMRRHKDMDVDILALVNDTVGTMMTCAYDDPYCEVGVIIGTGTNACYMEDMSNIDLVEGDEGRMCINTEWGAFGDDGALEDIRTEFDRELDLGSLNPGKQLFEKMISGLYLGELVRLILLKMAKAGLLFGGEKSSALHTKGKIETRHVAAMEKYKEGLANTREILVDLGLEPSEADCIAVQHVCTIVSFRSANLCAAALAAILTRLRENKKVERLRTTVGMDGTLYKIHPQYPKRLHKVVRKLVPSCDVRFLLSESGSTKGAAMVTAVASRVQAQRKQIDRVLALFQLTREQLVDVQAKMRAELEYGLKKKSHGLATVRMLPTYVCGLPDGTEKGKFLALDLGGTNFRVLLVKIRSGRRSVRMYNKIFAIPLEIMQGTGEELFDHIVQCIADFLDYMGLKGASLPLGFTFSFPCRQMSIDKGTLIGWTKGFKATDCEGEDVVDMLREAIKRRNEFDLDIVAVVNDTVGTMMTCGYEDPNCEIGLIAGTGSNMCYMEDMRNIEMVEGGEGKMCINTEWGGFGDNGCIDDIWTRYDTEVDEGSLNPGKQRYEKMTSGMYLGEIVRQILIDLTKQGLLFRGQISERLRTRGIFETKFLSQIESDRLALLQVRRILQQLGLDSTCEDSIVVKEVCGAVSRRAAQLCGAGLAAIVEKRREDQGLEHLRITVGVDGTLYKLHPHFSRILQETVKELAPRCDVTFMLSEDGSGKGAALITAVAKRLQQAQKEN

[3] = NIH-3T3 fibroblast cytotoxicity, dose response, cytotoxicity control, cell-based, fluorescence, Alamar Blue, secondary assay (AID 2327); type: functional;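 note: NIH-3T3 mouse fibroblasts cultured with fluconazole at 8 µg/mL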
[4] = inhibitors of firefly luciferase expression or activity, dose response, H4 neuroglioma cells, luminescence (AID 1990); type: functional, cell-based
[5] = molecular target: T2, Replicative DNA helicase DnaB (Mycobacterium tuberculosis, UniProt P9WMR3); experiment: DnaB intein splicing inhibitors, dose response, biochemical, cell-free fluorescence (AID 449749); type: functional
T2 sequence (P9WMR3 whole entry): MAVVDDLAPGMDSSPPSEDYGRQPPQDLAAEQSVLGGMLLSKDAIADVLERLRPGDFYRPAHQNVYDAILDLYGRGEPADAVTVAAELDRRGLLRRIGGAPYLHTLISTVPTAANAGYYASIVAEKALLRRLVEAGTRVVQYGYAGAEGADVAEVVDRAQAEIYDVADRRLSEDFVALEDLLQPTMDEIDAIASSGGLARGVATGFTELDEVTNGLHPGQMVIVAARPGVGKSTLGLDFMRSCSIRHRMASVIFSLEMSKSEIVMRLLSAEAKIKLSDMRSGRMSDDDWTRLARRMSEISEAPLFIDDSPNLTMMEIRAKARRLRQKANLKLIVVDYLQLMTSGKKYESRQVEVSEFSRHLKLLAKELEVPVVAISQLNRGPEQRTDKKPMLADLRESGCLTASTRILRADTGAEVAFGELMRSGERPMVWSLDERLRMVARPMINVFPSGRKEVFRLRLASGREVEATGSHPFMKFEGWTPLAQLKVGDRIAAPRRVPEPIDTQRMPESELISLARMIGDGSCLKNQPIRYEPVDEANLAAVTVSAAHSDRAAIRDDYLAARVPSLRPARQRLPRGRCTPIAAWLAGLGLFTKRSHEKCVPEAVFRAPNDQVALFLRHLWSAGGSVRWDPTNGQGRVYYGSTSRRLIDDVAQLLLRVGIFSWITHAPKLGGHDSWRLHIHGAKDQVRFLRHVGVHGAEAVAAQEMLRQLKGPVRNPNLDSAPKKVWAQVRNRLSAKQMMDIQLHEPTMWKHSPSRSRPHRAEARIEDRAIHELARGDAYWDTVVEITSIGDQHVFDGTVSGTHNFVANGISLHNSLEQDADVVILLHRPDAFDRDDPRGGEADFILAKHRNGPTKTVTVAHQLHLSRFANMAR

[6] = C. albicans growth with fluconazole, confirmation, fluorescence, retest (AID 2467); type: functional, cell-based
[7] = molecular target: T3, Protein RecA (Mycobacterium tuberculosis, UniProt P9WHJ3); experiment: Fluorescence Cell-Free Homogeneous Dose Retest to Identify Inhibitors of RecA-Intein Splicing Activity. [Related pubchem assays (depositor defined):AID2097, AID2223, AID489010, AID492950]; type: functional
T3 sequence (P9WHJ3 whole entry): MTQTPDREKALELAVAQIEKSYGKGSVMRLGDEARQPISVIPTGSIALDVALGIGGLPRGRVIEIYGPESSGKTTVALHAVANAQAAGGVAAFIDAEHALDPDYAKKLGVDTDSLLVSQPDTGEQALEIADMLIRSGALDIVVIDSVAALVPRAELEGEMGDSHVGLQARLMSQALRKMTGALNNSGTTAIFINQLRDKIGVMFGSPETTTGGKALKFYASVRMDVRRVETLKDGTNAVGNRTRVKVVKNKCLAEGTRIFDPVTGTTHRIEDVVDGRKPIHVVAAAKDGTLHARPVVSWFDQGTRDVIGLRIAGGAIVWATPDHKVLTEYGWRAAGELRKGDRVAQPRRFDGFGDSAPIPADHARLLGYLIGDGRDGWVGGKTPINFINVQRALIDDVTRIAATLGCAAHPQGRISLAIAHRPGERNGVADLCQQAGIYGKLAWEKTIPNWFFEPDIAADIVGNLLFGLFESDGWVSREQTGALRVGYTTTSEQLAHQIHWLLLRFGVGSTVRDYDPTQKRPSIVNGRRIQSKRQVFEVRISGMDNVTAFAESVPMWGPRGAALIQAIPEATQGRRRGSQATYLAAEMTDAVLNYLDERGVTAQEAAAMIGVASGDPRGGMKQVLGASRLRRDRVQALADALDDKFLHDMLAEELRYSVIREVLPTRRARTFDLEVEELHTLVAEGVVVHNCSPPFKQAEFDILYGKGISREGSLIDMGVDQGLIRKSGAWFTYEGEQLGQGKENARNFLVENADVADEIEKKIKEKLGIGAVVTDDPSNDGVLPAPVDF

[8] = test system: BJ; experiment: cytotoxicity toward BJ-TERT fibroblasts, dose response, cell-based, RAS-independent, luminescence (AID 1933); type: functional; details: Homo sapiens
[9] = cytotoxicity toward DRD oncogenic fibroblasts, dose response, cell-based, non-viral oncogenic, luminescence (AID 1934); type: functional; details: Homo sapiens
[10] = test system: BJ; experiment: cytotoxicity toward BJ-TERT-LT-ST fibroblasts, dose response, cell-based, RAS-independent, luminescence (AID 1935); type: functional; details: Homo sapiens;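 note: BJ fibroblasts immortalized with TERT plus LT and ST oncogenes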
[11] = molecular target: T4, Microphthalmia-associated transcription factor (Homo sapiens, UniProt O75030); experiment: TRPM1 promoter luciferase signal decrease, dose response, MITF inhibitor project, cell-based, SK-MEL-5, cherry-picked, set 3 (AID 493073); type: functional
T4 sequence (O75030 whole entry): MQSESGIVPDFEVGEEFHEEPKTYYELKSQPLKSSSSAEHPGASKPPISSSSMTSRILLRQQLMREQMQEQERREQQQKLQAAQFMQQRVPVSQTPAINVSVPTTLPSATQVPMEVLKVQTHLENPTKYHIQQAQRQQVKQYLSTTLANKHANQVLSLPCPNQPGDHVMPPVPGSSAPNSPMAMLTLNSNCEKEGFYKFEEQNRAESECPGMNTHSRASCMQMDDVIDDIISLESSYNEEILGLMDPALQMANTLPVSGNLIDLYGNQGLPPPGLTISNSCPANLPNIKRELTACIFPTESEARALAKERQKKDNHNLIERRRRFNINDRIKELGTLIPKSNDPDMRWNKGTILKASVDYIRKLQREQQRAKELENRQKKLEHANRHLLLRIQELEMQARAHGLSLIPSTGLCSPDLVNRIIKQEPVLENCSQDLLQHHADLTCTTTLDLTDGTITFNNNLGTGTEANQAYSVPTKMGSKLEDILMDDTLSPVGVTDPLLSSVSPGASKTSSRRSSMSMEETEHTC

[12] = test system: BJ; experiment: cells; type: functional, cell-based; details: Homo sapiens
[13] = inhibitors of SNCA 5'UTR-driven reporter translation, confirmation, H4 neuroglioma cells, luminescence (AID 1988); type: functional, cell-based
[14] = molecular target: Beta-galactosidase (Escherichia coli, UniProt Q8VNN2); type: functional
[15] = molecular target: T5, Kappa-type opioid receptor (Homo sapiens, UniProt P41145); type: functional
[16] = molecular target: T5, Kappa-type opioid receptor; type: functional; remark: listed apart in the source
[17] = molecular target: Cytochrome P450 3A4 (Homo sapiens, UniProt P08684); details: Potency;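 note: confirmatory qHTS run detecting inhibitors and substrates of CYP3A4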
[18] = test system: P388; experiment: cells; type: functional; details: Mus musculus
[19] = test system: SN12K1; experiment: cells; type: functional; details: Homo sapiens
[20] = test system: P388/ADR; experiment: cells; type: functional; details: Mus musculus

T5 sequence (P41145 whole entry): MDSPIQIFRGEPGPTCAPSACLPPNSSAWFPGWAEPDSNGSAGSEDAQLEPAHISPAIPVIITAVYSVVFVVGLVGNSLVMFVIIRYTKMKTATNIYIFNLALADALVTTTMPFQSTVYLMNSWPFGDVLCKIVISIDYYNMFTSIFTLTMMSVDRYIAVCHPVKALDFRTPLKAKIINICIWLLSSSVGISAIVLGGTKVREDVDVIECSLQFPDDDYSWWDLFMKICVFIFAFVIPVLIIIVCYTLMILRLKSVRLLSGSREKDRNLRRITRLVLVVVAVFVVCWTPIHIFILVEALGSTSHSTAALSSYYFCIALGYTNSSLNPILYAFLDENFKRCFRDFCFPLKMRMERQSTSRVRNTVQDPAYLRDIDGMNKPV
Sequence of Cytochrome P450 3A4 (P08684 whole entry): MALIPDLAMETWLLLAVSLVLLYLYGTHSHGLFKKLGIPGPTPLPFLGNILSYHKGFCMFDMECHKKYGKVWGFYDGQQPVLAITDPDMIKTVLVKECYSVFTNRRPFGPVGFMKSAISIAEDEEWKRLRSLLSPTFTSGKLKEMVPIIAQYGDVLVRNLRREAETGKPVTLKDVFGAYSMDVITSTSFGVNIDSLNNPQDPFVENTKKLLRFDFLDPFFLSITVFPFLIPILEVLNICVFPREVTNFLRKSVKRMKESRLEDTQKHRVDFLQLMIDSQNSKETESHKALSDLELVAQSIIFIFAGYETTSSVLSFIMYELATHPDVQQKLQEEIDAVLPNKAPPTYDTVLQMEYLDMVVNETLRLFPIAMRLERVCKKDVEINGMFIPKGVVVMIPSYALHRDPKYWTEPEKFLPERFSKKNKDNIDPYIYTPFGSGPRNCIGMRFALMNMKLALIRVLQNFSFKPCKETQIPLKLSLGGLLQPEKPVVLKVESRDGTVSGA
Sequence of Beta-galactosidase (Q8VNN2 whole entry): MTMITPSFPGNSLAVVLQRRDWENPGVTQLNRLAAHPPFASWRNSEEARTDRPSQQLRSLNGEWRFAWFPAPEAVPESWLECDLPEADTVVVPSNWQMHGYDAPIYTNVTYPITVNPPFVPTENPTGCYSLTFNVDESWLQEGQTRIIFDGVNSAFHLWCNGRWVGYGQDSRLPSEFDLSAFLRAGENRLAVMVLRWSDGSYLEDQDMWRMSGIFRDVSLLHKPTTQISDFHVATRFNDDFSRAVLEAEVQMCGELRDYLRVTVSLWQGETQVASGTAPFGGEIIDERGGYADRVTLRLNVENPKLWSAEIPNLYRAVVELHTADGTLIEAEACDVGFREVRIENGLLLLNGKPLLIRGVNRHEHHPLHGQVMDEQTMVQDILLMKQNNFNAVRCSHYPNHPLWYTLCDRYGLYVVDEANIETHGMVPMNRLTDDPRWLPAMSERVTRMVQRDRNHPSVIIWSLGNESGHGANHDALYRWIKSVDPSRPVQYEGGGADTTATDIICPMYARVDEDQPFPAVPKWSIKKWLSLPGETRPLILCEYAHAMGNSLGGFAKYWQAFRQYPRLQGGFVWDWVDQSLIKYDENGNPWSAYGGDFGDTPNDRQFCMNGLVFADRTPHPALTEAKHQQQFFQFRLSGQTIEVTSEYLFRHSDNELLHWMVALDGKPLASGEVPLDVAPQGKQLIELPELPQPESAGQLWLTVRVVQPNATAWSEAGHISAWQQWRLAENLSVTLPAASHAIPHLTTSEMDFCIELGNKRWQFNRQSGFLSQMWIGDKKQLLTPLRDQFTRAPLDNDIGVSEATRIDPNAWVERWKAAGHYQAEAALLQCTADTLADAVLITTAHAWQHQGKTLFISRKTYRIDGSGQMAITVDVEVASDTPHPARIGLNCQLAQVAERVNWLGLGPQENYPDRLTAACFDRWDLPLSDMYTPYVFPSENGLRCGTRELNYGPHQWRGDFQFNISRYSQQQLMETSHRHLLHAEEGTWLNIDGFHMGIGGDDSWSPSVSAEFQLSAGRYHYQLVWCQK

Row | SMILES | EC50 [1] | IC50 [2] | EC50 [3] | EC50 [4] | AC50 [5] | EC50 [6] | EC50 [7] | EC50 [8] | EC50 [9] | EC50 [10] | AC50 [11] | EC50 [12] | EC50 [13] | EC50 [14] | IC50 [15] | IC50 [16] | AC50 [17] | GI50 [18] | GI50 [19] | GI50 [20]
1 | CCOc1ccc(-n2c(C)cc(C(=O)CCl)c2C)cc1 | 15 µM (active) | 47.7 µM (inactive) | 4.21 µM (inconclusive) | > 120 µM (not active) | 8.96 µM (active) | > 38 µM (not active) | 11.7 µM (active) | 4.29 µM (active) | 9.56 µM (active) | 9.67 µM (inconclusive) | 4.59 µM (active) | 4.84 µM (active) | > 120 µM (not active) |  |  |  |  |  |  | 
2 | Oc1ccc2c3c1O[C@H]1c4oc5ccccc5c4C[C@@]4(O)[C@@H](C2)N(CC2CC2)CC[C@]314 |  |  |  |  |  |  |  |  |  |  |  |  |  | > 31.5 µM (inactive) | 0.699 µM (active) | < 0.5 µM |  |  |  | 
3 | COC1=CC(=O)C=C(OC)C1=O [2,6-DIMETHOXYQUINONE] |  | 2.49 µM (active) |  |  |  |  |  |  |  |  |  |  |  |  |  |  | 25.1 µM (inconclusive) | 0.401 µM (active) | 7.38 µM (inactive) | 0.457 µM (active)
